Biological target: T1, ΔF508-CFTR (Homo sapiens, UniProt P13569, DEL508-508)
T1 construct: expressed in transfected cells; host or cells: Fisher rat […] (FRT) cells expressing ΔF508-CFTR (Ussing chamber); NIH3T3 cells stably expressing ΔF508-CFTR (whole-cell recording)
Test: Assays for detecting and measuring ΔF508-CFTR potentiation properties of compounds (membrane potential optical / Ussing chamber / whole-cell recording)
Type: cell-based
Settings: for Emax: relative efficacy, efficacy of putative ΔF508-CFTR potentiators compared to known potentiator genistein; for EC50: ΔF508-CFTR potentiation, the specific assay format behind Table 3 is not stated
From the text: Assays for Detecting and Measuring ΔF508-CFTR Potentiation Properties of Compounds
Membrane Potential Optical Methods for Assaying ΔF508-CFTR Modulation Properties of Compounds
The optical membrane potential assay utilized voltage-sensitive FRET sensors described by Gonzalez and Tsien (See Gonzalez, J. E. and R. Y. Tsien (1995) “Voltage sensing by fluorescence resonance energy transfer in single cells” Biophys J 69(4): 1272-80, and Gonzalez, J. E. and R. Y. Tsien (1997) “Improved indicators of cell membrane potential that use fluorescence resonance energy transfer” Chem Biol 4(4): 269-77) in combination with instrumentation for measuring fluorescence changes such as the Voltage/Ion Probe Reader (VIPR) (See Gonzalez, J. E., K. Oades, et al. (1999) “Cell-based assays and instrumentation for screening ion-channel targets” Drug Discov Today 4(9): 431-439).
These voltage sensitive assays are based on the change in fluorescence resonant energy transfer (FRET) between the membrane-soluble, voltage-sensitive dye, DiSBAC2(3), and a fluorescent phospholipid, CC2-DMPE, which is attached to the outer leaflet of the plasma membrane and acts as a FRET donor. Changes in membrane potential (Vm) cause the negatively charged DiSBAC2(3) to redistribute across the plasma membrane and the amount of energy transfer from CC2-DMPE changes accordingly. The changes in fluorescence emission were monitored using VIPR™ II, which is an integrated liquid handler and fluorescent detector designed to conduct cell-based screens in 96- or 384-well microtiter plates.
Identification of Potentiator Compounds
Typical protocol utilized a basolateral to apical membrane Cl^− concentration gradient. To set up this gradient, normal ringers was used on the basolateral membrane and was permeabilized with nystatin (360 μg/m), whereas apical NaCl was replaced by equimolar sodium gluconate (titrated to pH 7.4 with NaOH) to give a large Cl^− concentration gradient across the epithelium. All experiments were performed 30 min after nystatin permeabilization. Forskolin (10 μM) and all test compounds were added to both sides of the cell culture inserts. The efficacy of the putative ΔF508-CFTR potentiators was compared to that of the known potentiator, genistein.
Solutions • Basolateral solution (in mM): NaCl (135), CaCl2 (1.2), MgCl2 (1.2), K2HPO4 (2.4), KHPO4 (0.6), N-2-hydroxyethylpiperazine-N′-2-ethanesulfonic acid (HEPES) (10), and dextrose (10). The solution was titrated to pH 7.4 with NaOH. • Apical solution (in mM): Same as basolateral solution with NaCl replaced with Na Gluconate (135).
Fisher rat […] (FRT) cells expressing ΔF508-CFTR (FRTΔ^F508-CFTR) were used for Ussing chamber experiments for the putative ΔF508-CFTR modulators identified from our optical assays. The cells were cultured on Costar Snapwell cell culture inserts and cultured for five days at 37° C. and 5% CO2 in Coon's modified Ham's F-12 medium supplemented with 5% fetal calf serum, 100 U/ml penicillin, and 100 μg/m streptomycin. Prior to use for characterizing the potentiator activity of compounds, the cells were incubated at 27° C. for 16-48 hrs to correct for the ΔF508-CFTR. To determine the activity of corrections compounds, the cells were incubated at 27° C. or 37° C. with and without the compounds for 24 hours.
The macroscopic ΔF508-CFTR current (IΔF508) in temperature- and test compound-corrected NIH3T3 cells stably expressing ΔF508-CFTR were monitored using the perforated-patch, whole-cell recording. Briefly, voltage-clamp recordings of IΔF508 were performed at room temperature using an Axopatch 200B patch-clamp amplifier (Axon Instruments Inc., Foster City, Calif.). All recordings were acquired at a sampling frequency of 10 kHz and low-pass filtered at 1 kHz. […] Under these recording conditions, the calculated reversal potential for Cl^− (ECl) at room temperature was −28 mV. […]

T1 sequence (P13569 with tags, fused parts or gaps DEL508-508): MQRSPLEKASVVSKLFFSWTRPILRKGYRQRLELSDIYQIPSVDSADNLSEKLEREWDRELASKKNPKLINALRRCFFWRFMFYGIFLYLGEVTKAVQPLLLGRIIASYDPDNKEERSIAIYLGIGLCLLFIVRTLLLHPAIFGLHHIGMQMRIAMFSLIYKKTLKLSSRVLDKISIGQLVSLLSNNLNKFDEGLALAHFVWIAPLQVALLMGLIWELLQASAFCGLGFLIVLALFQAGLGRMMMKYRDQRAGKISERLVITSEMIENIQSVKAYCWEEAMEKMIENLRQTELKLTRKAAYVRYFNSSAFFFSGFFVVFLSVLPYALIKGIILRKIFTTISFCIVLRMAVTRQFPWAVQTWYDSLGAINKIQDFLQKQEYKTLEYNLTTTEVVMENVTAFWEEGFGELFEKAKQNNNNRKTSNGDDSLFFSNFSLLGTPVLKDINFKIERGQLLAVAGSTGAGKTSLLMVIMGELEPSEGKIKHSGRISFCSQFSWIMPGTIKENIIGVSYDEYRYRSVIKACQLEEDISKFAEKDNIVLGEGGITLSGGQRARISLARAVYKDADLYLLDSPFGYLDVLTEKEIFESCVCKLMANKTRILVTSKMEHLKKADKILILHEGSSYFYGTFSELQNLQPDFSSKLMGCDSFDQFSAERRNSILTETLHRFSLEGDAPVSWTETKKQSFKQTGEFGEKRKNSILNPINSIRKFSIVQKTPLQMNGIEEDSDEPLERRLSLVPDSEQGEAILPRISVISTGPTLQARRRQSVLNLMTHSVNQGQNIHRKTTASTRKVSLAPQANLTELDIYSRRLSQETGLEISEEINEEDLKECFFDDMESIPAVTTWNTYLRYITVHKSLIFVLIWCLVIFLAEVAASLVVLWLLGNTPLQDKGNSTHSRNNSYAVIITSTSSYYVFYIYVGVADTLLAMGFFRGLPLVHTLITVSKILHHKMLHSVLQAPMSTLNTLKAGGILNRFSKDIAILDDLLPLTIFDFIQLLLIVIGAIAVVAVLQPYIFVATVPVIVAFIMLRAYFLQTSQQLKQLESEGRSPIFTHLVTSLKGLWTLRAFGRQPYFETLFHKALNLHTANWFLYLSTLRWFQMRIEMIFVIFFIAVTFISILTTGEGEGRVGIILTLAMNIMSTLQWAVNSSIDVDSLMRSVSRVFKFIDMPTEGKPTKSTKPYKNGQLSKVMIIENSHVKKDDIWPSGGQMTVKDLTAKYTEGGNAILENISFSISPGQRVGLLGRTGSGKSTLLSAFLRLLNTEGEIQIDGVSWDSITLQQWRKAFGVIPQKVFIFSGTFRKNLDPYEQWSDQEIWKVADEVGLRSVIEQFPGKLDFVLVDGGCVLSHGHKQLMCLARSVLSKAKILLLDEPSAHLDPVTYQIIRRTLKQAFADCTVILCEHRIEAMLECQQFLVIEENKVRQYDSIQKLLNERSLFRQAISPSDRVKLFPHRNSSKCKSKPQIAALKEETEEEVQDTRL

Emax [%] | EC50 [µM] | Compound
25 to 100 | < 10 | Cc1nsc2[nH]cc(C(=O)Nc3ccc4c(C(F)(F)F)c[nH]c4c3)c(=O)c12 [Compound 1]
25 to 100 | < 10 | Cc1nsc2[nH]cc(C(=O)Nc3ccc4c(C(C)(C)C)c[nH]c4c3)c(=O)c12 [Compound 2, N-(3-tert-butyl-1H-indol-6-yl)-3-methyl-4-oxo-4,7-dihydroisothiazolo[5,4-b]-pyridine-5-carboxamide]
25 to 100 | < 10 | Cc1nsc2[nH]cc(C(=O)Nc3cc(O)c(C(C)(C)C)cc3C(C)(C)C)c(=O)c12 [Compound 3]
25 to 100 | < 10 | Cc1nsc2[nH]cc(C(=O)Nc3ccc(N4CCC[C@@H]4C)cc3C(F)(F)F)c(=O)c12 [Compound 4]
25 to 100 | < 10 | Cc1nsc2[nH]cc(C(=O)Nc3cc(O)c(C4(C)CCCCC4)cc3F)c(=O)c12 [Compound 5]
25 to 100 | < 10 | Cc1nsc2[nH]cc(C(=O)Nc3ccc(C(F)(F)F)c(O)c3)c(=O)c12 [Compound 6]
25 to 100 | < 10 | Cc1nsc2[nH]cc(C(=O)Nc3ccc(N4CCC(F)(F)C4)cc3C(F)(F)F)c(=O)c12 [Compound 7]
25 to 100 | < 10 | Cc1nsc2[nH]cc(C(=O)Nc3ccc(N4CCC(C)(C)C4)cc3C(F)(F)F)c(=O)c12 [Compound 8]
25 to 100 | < 10 | Cc1nsc2[nH]cc(C(=O)Nc3cc4[nH]ccc4cc3C(F)(F)F)c(=O)c12 [Compound 9]
25 to 100 | < 10 | Cc1nsc2[nH]cc(C(=O)Nc3ccc(N4CC[C@H](F)C4)cc3C(F)(F)F)c(=O)c12 [Compound 10]
25 to 100 | < 10 | Cc1nsc2[nH]cc(C(=O)Nc3ccc(N4[C@H](C)CC[C@H]4C)cc3C(F)(F)F)c(=O)c12 [Compound 11]
25 to 100 | < 10 | Cc1nsc2[nH]cc(C(=O)Nc3cc(O)c(C4CCCC4)cc3C(F)(F)F)c(=O)c12 [Compound 12]
25 to 100 | < 10 | Cc1nsc2[nH]cc(C(=O)Nc3ccc(N4CC[C@@H](F)C4)cc3C(F)(F)F)c(=O)c12 [Compound 13]
25 to 100 | < 10 | Cc1nsc2[nH]cc(C(=O)Nc3cc4[nH]ccc4cc3C(C)(C)C)c(=O)c12 [Compound 14]
25 to 100 | < 10 | Cc1nsc2[nH]cc(C(=O)Nc3cc(O)c(C4CCCC4)cc3C#N)c(=O)c12 [Compound 15]
25 to 100 | < 10 | Cc1cc(C2CCCC2)c(O)cc1NC(=O)c1c[nH]c2snc(C)c2c1=O [Compound 16]

Reference: US9399648B2, “Isothiazolopyridinones useful for the treatment of (inter alia) cystic fibrosis” (Vertex Pharmaceuticals Incorporated, priority 2007, dated 2016)
